The results in this text go back to patent US12528790B2, “Amide derivative having antiviral activity” (Shionogi & Co., Ltd., priority 2020, dated 2026).

The subject of one assay is RSV A2 strain. Put plainly: In vitro CPE (CytoPathic Effect) inhibition effect evaluation test, RSV type A. In kind it is cell-based. The gist of the method: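 EC50 is the concentration giving 50% inhibition of virus-induced cytopathic effect, fitted by nonlinear regression from CellTiter-Glo 2.0 viability. Compounds in 3-fold series were co-incubated at 37 °C with HEp-2 cells and RSV: A2 strain for 4 days, B (Wash/18537) for 5 days; uninfected wells served as control.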
(In general: Protection from cytopathic effect is a common read-out in antiviral testing.)

For assay [1], the system named is RSV B (Wash/18537 strain). Nature of the assay: In vitro CPE (CytoPathic Effect) inhibition effect evaluation test, RSV type B. It counts as cell-based. The protocol:
The test sample is diluted in advance to an appropriate concentration with DMSO, and 3-fold series of serial dilutions were prepared on a 384-well plate (0.32 μL/well). HEp-2 cells (CCL-23; ATCC) adjusted at appropriate number (2.4×10^5 cells/mL) in 2% FBS E-MEM (prepared by adding kanamycin and FBS to Eagle's Minimum Essential Medium; Invitrogen) were added at 12.5 μL/well to the 384-well plate previously aliquoted with the test samples. The RSV A2 strain was diluted to an appropriate concentration in a culture medium and added to the 384-well plate containing the test sample at 12.5 μL/well. The culture medium was added additionally to the 384-well plate, and the test was started with 50 μL/well. Control wells were prepared with only virus-free culture medium. The plate was incubated in a 5% CO2 incubator at 37° C. for 4 days, and the plate was then placed at room temperature for 30 minutes. CellTiter-Glo (registered trademark) 2.0 assay (Promega) was added at 15 μL/well, mixed for 30 seconds, and the plate was placed for approximately 1 hour. The luminescent signal was then measured by EnVision (PerkinElmer). The inhibitory effect of the test agents on RSV-induced CPE was calculated as 0% and 100% inhibition rate for each sample concentration based on the level of remaining viable cells by CellTiter-Glo (registered trademark) 2.0, with the EC50 value for each compound calculated by nonlinear regression as the concentration that inhibits RSV-induced CPE by 50%. In the case of evaluation against RSV type B, RSV B (Wash/18537 strain) was infected in the same manner as the type A, cultured for 5 days, and quantitated in the same manner as for the A2 strain.

Setting [2] is: human respiratory syncytial virus, inhibitory effect against RSV type A (RSV A2 strain), HEp-2 cells, CPE inhibition, read-out: EC50.
[3] abbreviates: human respiratory syncytial virus, inhibitory effect against RSV type B, CPE inhibition, read-out: EC50.
Setting [4] is: human respiratory syncytial virus, HEp-2, 96 h, read-out: EC50, inhibitory effect against RSV type A (CPE inhibition).
The mark [5] stands for this setting: human respiratory syncytial virus, HEp-2, 120 h, HEp-2 cells, RSV B (Wash/18537 strain), 5 days, CellTiter-Glo, read-out: EC50, inhibitory effect against RSV type B (CPE inhibition).

pEC50: −log10 of the molar value. Where two headings read alike, the source gives them in different places. Where only a bound is given, the exact number is not on record here.

For `O=C(NC1(C(=O)O)C2CC3CC(C2)CC1C3)c1cnc(N2CC3(CCOCC3)c3cc(-n4ncc5c4CCN(CC(F)(F)F)C5)ccc32)nc1C(F)(F)F` (stereo not shown) [Compound I-472], the negative logarithm of the EC50 (pEC50) (in the assay on RSV A2 strain (setting [2]); in assay [1] (setting [3])) was greater than 8.00 throughout.
Consider `CC(F)(F)CN1CCC(Oc2ccc3c(-c4ncc(C(=O)NC5(C(=O)O)C6CC7CC(C6)CC5C7)c(C(F)(F)F)n4)cn(C4CCOCC4)c3c2)CC1` (stereo not shown) [Compound I-578], for which the pEC50 (in the assay on RSV A2 strain (setting [2]); in assay [1] (setting [3])) was greater than 8.00 throughout.
For the molecule `O=C(NC1(C(=O)O)C2CC3CC(C2)CC1C3)c1cnc(N2CC3(CCCCC3)c3cc(OC4CCN(c5ncco5)CC4)ccc32)nc1C(F)(F)F` (stereo not shown) [Compound I-519], the negative logarithm of the EC50 (pEC50) (in the assay on RSV A2 strain (setting [2]); in assay [1] (setting [3])) was greater than 8.00 each time.
For the molecule `CC(F)(F)c1nc(N2CC3(CCCCC3)c3cc(OC4CCC5(CC4)CN(CC(F)(F)F)C5)ccc32)ncc1C(=O)NC1(C(=O)O)C2CC3CC(C2)CC1C3` (stereo not shown) [Compound I-550], the values for the pEC50 (with RSV A2 strain (setting [2]); in assay [1] (setting [3])) were greater than 8.00 and 7.00 to 8.00, respectively.
The corresponding values for `CCC(CC)n1cc(-c2ncc(C(=O)NC3(C(=O)O)C4CC5CC(C4)CC3C5)c(C(F)(F)F)n2)c2ccc(OC3CCN(c4ncc(F)cn4)CC3)cc21` (stereo not shown) [Compound I-421] are greater than 8.00 and greater than 8.00.
The corresponding values for `CC(F)(F)c1nc(N2CC3(CCOCC3)c3cc(OC4CCN(CC(F)F)CC4)ccc32)ncc1C(=O)NC1(C(=O)O)C2CC3CC(C2)CC1C3` (stereo not shown) [Compound I-559] are greater than 8.00 and greater than 8.00.
Consider `COc1nc(N2CCc3cc(OCCC4CCOCC4)ccc32)nc(C(F)(F)F)c1C(=O)NC1(C(=O)O)C2CC3CC(C2)CC1C3` (stereo not shown) [Compound I-88], for which the negative logarithm of the EC50 (pEC50) – broadly, the EC50 on a negative log10 scale, so that one unit is a factor of ten – in the assay with RSV A2 strain (inhibitory effect against RSV type A (RSV A2 strain), HEp-2 cells, CPE inhibition, read-out: EC50) is greater than 8.00; in assay [1] (inhibitory effect against RSV type B, CPE inhibition, read-out: EC50) it was 7.00 to 8.00.
In the case of `O=C(NC1(C(=O)O)C2CC3CC(C2)CC1C3)c1cnc(N2CC3(CCCCC3)c3cc(OC4CCN(CC(F)F)CC4)ccc32)nc1C(F)(F)F` (stereo not shown) [Compound I-482], the negative-log EC50 (pEC50) in the assay on RSV A2 strain (setting [2]) was greater than 8.00; in assay [1] (setting [3]), 7.00 to 8.00.
For `O=C(NC1(C(=O)O)C2CC3CC(C2)CC1C3)c1ccc(-c2cn(C(=O)OC3CCOCC3)c3cc(OC4CCN(c5ncccn5)CC4)ccc23)nc1C(F)(F)F` (stereo not shown) [Compound I-152], the pEC50 (in the assay on RSV A2 strain (setting [2]); in assay [1] (setting [3])) was greater than 8.00 in each case.
As for `CC(F)(F)c1nc(N2CC3(CCOCC3)c3cc(OC4CCN(CC(F)(F)F)CC4)ncc32)ncc1C(=O)NC1(C(=O)O)C2CC3CC(C2)CC1C3` (stereo not shown) [Compound I-526], the pEC50 (with RSV A2 strain (setting [2]); in assay [1] (setting [3])) was greater than 8.00 throughout.
As to `O=C(NC1(C(=O)O)C2CC3CC(C2)CC1C3)c1cnc(-c2cn(C3CCC(F)(F)CC3)c3cc(OC4CCN(CC5(F)COC5)CC4)ccc23)nc1C(F)(F)F` (stereo not shown) [Compound I-429], the pEC50 was greater than 8.00 in the assay with RSV A2 strain (setting [2]) and 7.00 to 8.00 in assay [1] (setting [3]).
As to `O=C(NC1(C(=O)O)C2CC3CC(C2)CC1C3)c1cnc(-c2c3ccc(OC4CCN(c5ncccn5)CC4)cc3nn2C2CCOCC2)nc1C(F)(F)F` (stereo not shown) [Compound I-182], the pEC50 in the assay with RSV A2 strain (setting [4]) is 9.41; in assay [1] (setting [5]), 8.68.
As for `CC(F)(F)c1nc(N2CC3(CCOCC3)c3cc(O[C@@H]4CCN(CC(F)(F)F)C4)ccc32)ncc1C(=O)NC1(C(=O)O)C2CC3CC(C2)CC1C3` (stereo partly shown) [Compound I-561], the pEC50 (in the assay with RSV A2 strain (setting [2]); in assay [1] (setting [3])) was greater than 8.00 in each case.
In the case of `CC(F)(F)c1nc(N2CC3(CCOCC3)c3cc(OC4CCN(CC(F)(F)F)CC4)ccc32)ncc1C(=O)NC1(C(=O)O)C2CC3CC(C2)CC1C3` (stereo not shown) [Compound I-465], the pEC50 (in the assay with RSV A2 strain (setting [2]); in assay [1] (setting [3])) was greater than 8.00 in each case.
As for `O=C(NC1(C(=O)O)C2CC3CC(C2)CC1C3)c1cnc(-c2cn(C3CC3)c3cc(O[C@H]4CC[C@@H](N5CC(F)(F)C5)CC4)ccc23)nc1C(F)(F)F` (stereo partly shown) [Compound I-543], the pEC50 (in the assay with RSV A2 strain (setting [2]); in assay [1] (setting [3])) was greater than 8.00 each time.
With `O=C(NC1(C(=O)O)C2CC3CC(C2)CC1C3)c1cnc(N2CC3(CCCCC3)c3cc(C(=O)N4CCN(CC(F)(F)F)CC4)ccc32)nc1C(F)(F)F` (stereo not shown) [Compound I-505], the pEC50 (with RSV A2 strain (setting [2]); in assay [1] (setting [3])) was greater than 8.00 throughout.
As to `CCC(CC)n1cc(-c2ncc(C(=O)NC3(C(=O)O)C4CC5CC(C4)CC3C5)c(C(F)(F)F)n2)c2ccc(O[C@H]3CC[C@H](N4CC(F)(F)C4)CC3)cc21` (stereo partly shown) [Compound I-496], the pEC50 (with RSV A2 strain (setting [2]); in assay [1] (setting [3])) was greater than 8.00 in each case.
As for `O=C(NC1(C(=O)O)C2CC3CC(C2)CC1C3)c1cnc(-c2cn(C3CCC(F)(F)CC3)c3cc(OC4CCC(N5CC(F)(F)C5)C4)ccc23)nc1C(F)(F)F` (stereo not shown) [Compound I-451], the negative-log EC50 (pEC50) in the assay on RSV A2 strain (setting [2]) is greater than 8.00; in assay [1] (setting [3]) it was 7.00 to 8.00.
On the same counts, the results for `CC(F)(F)c1nc(N2CC3(CCCCC3)c3cc(OC4CCN(C5CC(F)(F)C5)CC4)ccc32)ncc1C(=O)NC1(C(=O)O)C2CC3CC(C2)CC1C3` (stereo not shown) [Compound I-400] are greater than 8.00 and 7.00 to 8.00.
The corresponding values for `CC(F)(F)c1nc(N2CC3(CCOCC3)c3cc(O[C@H]4CC[C@H](N5CC(F)(F)C5)CC4)ccc32)ncc1C(=O)N[C@]1(C(=O)O)[C@@H]2CC3C[C@H]1C[C@@](F)(C3)C2` [Compound I-554] are greater than 8.00 and greater than 8.00.
On the same counts, the results for `COc1cnc(N2CCC(Oc3ccc4c(c3)C3(CCCCC3)CN4c3ncc(C(=O)NC4(C(=O)O)C5CC6CC(C5)CC4C6)c(C(F)(F)F)n3)CC2)cn1` (stereo not shown) [Compound I-537] are greater than 8.00 and 7.00 to 8.00.
Take `COC[C@H](C)n1cc(-c2ccc(C(=O)NC3(C(=O)O)C4CC5CC(C4)CC3C5)c(C(F)(F)F)n2)c2ccc(O[C@H]3CC[C@H](N4CC(F)(F)C4)CC3)cc21` (stereo partly shown) [Compound I-577]: the pEC50 (with RSV A2 strain (setting [2]); in assay [1] (setting [3])) was greater than 8.00 throughout.
On to `O=C(NC1(C(=O)O)C2CC3CC(C2)CC1C3)c1cnc(N2CC3(CCOCC3)c3cc(OC4CCN(c5ncc(F)cn5)CC4)ccc32)nc1C(F)(F)F` (stereo not shown) [Compound I-275], for which the pEC50 (in the assay with RSV A2 strain (setting [2]); in assay [1] (setting [3])) was greater than 8.00 throughout.
Turning to `COCc1ccc(-c2ccc3c(c2)CCN3c2ncc(C(=O)NC3(C(=O)O)CCCCC3)c(C(F)(F)F)n2)cc1` [Compound I-9], the negative logarithm of the EC50 (pEC50) in the assay with RSV A2 strain (setting [2]) was 7.00 to 8.00; in assay [1] (setting [3]), 5.30 to 7.00.
On to `O=C(NC1(C(=O)O)C2CC3CC(C2)CC1C3)c1cnc(N2CC3(CCCCC3)c3cc(OC4CCN(C5CC(F)(F)C5)CC4)ccc32)nc1C(F)(F)F` (stereo not shown) [Compound I-393], for which the values for the pEC50 (with RSV A2 strain (setting [2]); in assay [1] (setting [3])) were greater than 8.00 and 7.00 to 8.00, respectively.
On the same counts, the results for `O=C(NC1(C(=O)O)C2CC3CC(C2)CC1C3)c1ccc(-c2cn(C3CCC(F)(F)CC3)c3c(F)c(OC4CCN(c5ncccn5)CC4)ccc23)nc1C(F)(F)F` (stereo not shown) [Compound I-227] are greater than 8.00 and greater than 8.00.
In the case of `CCC(C)n1cc(-c2ncc(C(=O)NC3(C(=O)O)C4CC5CC(C4)CC3C5)c(C(F)(F)F)n2)c2ccc(O[C@H]3CC[C@H](N4CC(F)(F)C4)CC3)cc21` (stereo partly shown) [Compound I-617], the pEC50 (in the assay with RSV A2 strain (setting [2]); in assay [1] (setting [3])) was greater than 8.00 in each case.
Consider `O=C(NC1(C(=O)O)C2CC3CC(C2)CC1C3)c1ccc(-c2cn(C3CCC(F)(F)CC3)c3cc(OC4CCN(c5ncccn5)CC4)ccc23)nc1C(F)(F)F` (stereo not shown) [Compound I-162], for which the negative-log EC50 (pEC50) in the assay on RSV A2 strain (setting [4]) is 9.06; in assay [1] (setting [5]), 8.48.
On the same counts, the results for `O=C(NC1(C(=O)O)CCCCC1)c1ccc(N2CCc3cc(OCCC4CCOCC4)ccc32)nc1C(F)(F)F` [Compound I-33] are 8.12 and 6.96.
